Where two headings read alike, the source gives them in different places. Where only a bound is given, the exact number is not on record here.

Format in all cases: in vivo
Test [1] has as its system Tetranychus urticae (spider mites - adult). Nature of the test: Contact test on spider mites - adult (TUa), French bean leaf, mortality. The note with it: 72 h, 500 ppm, contact, 3 days, read-out: TUa grading of mortality. The essentials: (§1)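 Graded read-out: A 80-100%, B 50-79%, C below 50% mortality or knockdown, assessed usually 1-3 days post-treatment. Liquid preparations at 500, 250 or 100 ppm by weight, from acetone solution diluted in water with 0.01% wetting agent, applied to pests and/or their host plant or food medium.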

The subject of test [2] is Spodoptera exigua (lesser army worm - larvae). Nature of the test: Residual test on lesser army worm larvae (SP), Cotton leaf, mortality. Conditions: 48 h, 500 ppm, residual, * test duration of 3 days, read-out: SP grading of mortality. The procedure, abridged:
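Product dissolved in acetone and diluted in water with 0.01% wetting agent to 500, 250 or 100 ppm; larvae and/or cotton leaf host treated. Mortality or knockdown scored one to three days later and graded A (80-100%), B (50-79%) or C (<50%).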

In test [3] the test system is Blattella germanica (cockroach nymphs). The experiment in a line: Residual test on cockroach nymphs (BG/R), Plastic pot, mortality. The note with it: 72 h, 3 days, read-out: BG/R grading of mortality. On the procedure:
The activity of the Product was determined using a variety of insect pests. The Product was used in the form of liquid preparations containing 500, 250 or 100 parts per million (ppm) by weight of the Product. The preparations were made by dissolving the Product in acetone and diluting the solutions with water containing 0.01% by weight of a wetting agent sold under the trade name "LISSAPOL" NX until the liquid preparations contained the required concentration of the Product. "Lissapol" is a Registered Trade Mark.
The test procedure adopted with regard to each pest was basically the same and comprised supporting a number of the pests on a medium which was usually a host plant or a foodstuff on which the pests feed, and treating either or both the pests and the medium with the preparations. The mortality of the pests was then assessed at periods usually varying from one to three days after the treatment.
The results of the tests are given in Table III for each of the Products, at the rate in parts per million given in the second column as a grading of mortality designated as A, B or C wherein A indicates 80-100% mortality or knockdown, B indicates 50-79% mortality or knockdown and C indicates less than 50% mortality or knockdown.
BG/R Blattella germanica

The subject of test [4] is Musca domestica (houseflies - adults). The experiment in a line: Knockdown test on houseflies - adults (MD/KD), Cotton wool/sugar. The note with it: 500 ppm, 4 hours, read-out: MD/KD grading of knockdown. The procedure, abridged:
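Adult houseflies exposed to the compound at 500, 250 or 100 ppm in acetone/water with 0.01% wetting agent, on a cotton wool/sugar medium. Knockdown and mortality assessed, graded A (80-100%), B (50-79%) or C (<50%).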

The subject of test [5] is Diabrotica balteata (rootworm larvae). The experiment in a line: Residual test on rootworm larvae (DB), Filter paper/maize seed, mortality. The note with it: 48 h, 500 ppm, residual, * test duration of 3 days, read-out: DB grading of mortality. The procedure, abridged:
as §1

The subject of test [6] is Tetranychus urticae (spider mites - ova). The experiment in a line: Contact test on spider mites - ova (TUe), French bean leaf, mortality. The note with it: 144 h, 500 ppm, contact, 6 days, read-out: TUe grading of mortality. The essentials: as §1
Test [7] concerns Myzus persicae (aphids). The experiment in a line: Contact test on aphids (MP), Chinese Cabbage leaf, mortality. The note with it: 72 h, 500 ppm, contact, 3 days, read-out: MP grading of mortality. The essentials:
as §1

Test [8] deals with Nephotettix cincticeps (green leaf hopper - nymphs). Nature of the test: Contact test on green leaf hopper nymphs (NC), Rice plant, mortality. Conditions: 72 h, 500 ppm, contact, * test duration of 3 days, read-out: NC grading of mortality. The procedure, abridged: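 Product dissolved in acetone, diluted in water with 0.01% wetting agent to 500, 250 or 100 ppm; nymphs and/or host rice plants treated. Mortality or knockdown assessed 1–3 days later, graded A (80-100%), B (50-79%), C (<50%).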

Test [9] deals with Heliothis virescens (tobacco budworm - larvae). Nature of the test: Residual test on tobacco budworm larvae (HV), Cotton leaf, mortality. The note with it: 48 h, read-out: HV grading of mortality. The essentials: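 Product in acetone diluted with water containing 0.01% Lissapol NX, at 500, 250 or 100 ppm; pests and/or host medium (here cotton leaf) treated. Mortality scored one to three days later, graded A (80-100%), B (50-79%), C (<50%).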

Test [10] has as its system Musca domestica (houseflies - adults). Nature of the test: Contact test on houseflies - adults (MD), Cotton wool/sugar, mortality. The note with it: 500 ppm, contact, read-out: MD grading of mortality. The essentials: as §1
[11] abbreviates: 24 h, ** test duration of 1 day.

As to `Cc1c(F)c(F)c(COC(=O)C(c2cnc(C(C)(C)C)nc2)C(C)(C)C)c(F)c1F` (racemic) [Compound 4, 2,3,5,6-tetrafluoro-4-methylbenzyl (RS)-2-[2-(1,1-dimethylethyl)pyrimidin-5-yl]-3,3-dimethylbutanoate], the mortality at 500 ppm was 80 to 100% in [1]; 80 to 100% in test [2]; 50 to 79% in test [3]; 80 to 100% in test [5]; less than 50% in test [6]; 80 to 100% in [7]. Further, the mortality at 500 ppm in [8], in test [9] and in test [10] (setting [11]) was 80 to 100% each time. Moreover, the pest or weed control at 500 ppm in test [4] was in the range of 80 to 100%.
Consider `C=CCc1c(F)c(F)c(COC(=O)C(c2cnc(C(F)(F)F)nc2)C(C)C)c(F)c1F` (racemic) [Compound 114, 2,3,5,6-tetrafluoro-4-(prop-2-en-1-yl)benzyl (RS)-2-(2-trifluoromethylpyrimidin-5-yl)-3-methylbutanoate], for which the mortality at 500 ppm in [1], in [2], in test [3], in test [5], in test [6] and in test [7] was 80 to 100% each time. For the same compound, the mortality at 500 ppm in test [8] was 80 to 100%; in test [9], 80 to 100%; in test [10] (72 h, 3 days), 80 to 100%. Also, in [4], the pest or weed control at 500 ppm lay within 80 to 100%.
As for `CC(C)(C)c1ncc(C(C(=O)OCc2ccc(F)c(Oc3ccccc3)c2)C2CC2)cn1` (racemic) [Compound 125, 4-fluoro-3-phenoxybenzyl (RS)-2-[2-(1,1-dimethylethyl)pyrimidin-5-yl]-2cyclopropylacetate], the mortality at 500 ppm in test [1] is 80 to 100%; in [2], 80 to 100%; in test [3] it was less than 50%; in test [5], 80 to 100%; in [6], less than 50%; in [7], 80 to 100%. In addition, the figures for the mortality at 500 ppm in [8], in test [9] and in test [10] (setting [11]) were 80 to 100%, 80 to 100% and 50 to 79%, respectively. Besides, in [4], the pest or weed control at 500 ppm was 50 to 79%.
Consider `C[C@@H](OC(=O)[C@@H](c1cnc(C(C)(C)C)nc1)C1CC1)c1cccc(Oc2ccccc2)n1` (racemic) [Compound 90, (RS)-1-(6-phenoxypyrid-2-yl)ethyl (RS)-2-[2-(1,1-dimethylethyl)pyrimidin-5-yl]-2-cyclopropylacetate], for which the mortality at 500 ppm in test [1] is 80 to 100%; in [2] it was 80 to 100%; in [3] it was 80 to 100%; in test [5] it was 80 to 100%; in test [6], less than 50%; in test [7] it was 80 to 100%. For the same compound, the mortality at 500 ppm in [8], in test [9] and in test [10] (setting [11]) was 80 to 100% each time. Also, the pest or weed control at 500 ppm in test [4] is 80 to 100%.
Consider `COCc1c(F)c(F)c(COC(=O)C(c2cnc(C)nc2)C(C)C)c(F)c1F` (racemic) [Compound 214, 4-(methoxymethyl)-2,3,5,6-tetrafluoroenzyl (RS)-2-(2-methylpyrimidin-5-yl)-3-methylbutanoate], for which the mortality at 500 ppm in test [1] was 80 to 100%; in [2], 80 to 100%; in test [3] it was 80 to 100%; in [5], less than 50%; in test [6], less than 50%; in [7] it was 80 to 100%. For the same compound, the mortality at 500 ppm is 80 to 100% in [8], less than 50% in test [9] and 50 to 79% in [10] (setting [11]). Also, the pest or weed control at 500 ppm in [4] lay within 80 to 100%.
As to `C#CCc1c(F)c(F)c(COC(=O)C(c2cnc(C(F)(F)F)nc2)C(C)C)c(F)c1F` (racemic) [Compound 87, 2,3,5,6-tetrafluoro-4-(prop-2-yn-1-yl)benzyl (RS)-2-(2-trifluoromethylpyrimidin-5-yl)-3-methylbutanoate], the mortality at 500 ppm in test [1], in [2], in test [3], in [5], in test [6] and in test [7] was 80 to 100% throughout. Also, the results for the mortality at 500 ppm in [8], in test [9] and in [10] (setting [11]) were 50 to 79%, 50 to 79% and 80 to 100%, respectively. Also, in test [4], the pest or weed control at 500 ppm fell in the range of 80 to 100%.
In the case of `C#CCc1c(F)c(F)c(COC(=O)C(c2cnc(C(C)(C)C)nc2)C(C)(C)C)c(F)c1F` (racemic) [Compound 12, 2,3,5,6-tetrafluoro-4-(prop-2-yn-1-yl)benzyl (RS)-2-[2-(1,1-dimethylethyl)pyrimidin-5-yl]-3,3-dimethylbutanoate], the mortality at 500 ppm in test [1], in [2], in test [3], in [5], in test [6] and in test [7] was 80 to 100% throughout. In addition, the mortality at 500 ppm in test [8], in [9] and in test [10] (setting [11]) was 80 to 100% each time. The pest or weed control at 500 ppm in [4] was in the range of 80 to 100%.
`COCc1c(F)c(F)c(COC(=O)C(c2cnc(C(C)(C)C)nc2)C2CC2)c(OC)c1F` (racemic) [Compound 92, 3,5,6-trifluoro-2-methoxy-4-(methoxymethyl)benzyl (RS)-2-[2-(1,1-dimethylethyl)pyrimidin-5-yl]-2-cyclopropylacetate]: the mortality at 500 ppm in [1] is 80 to 100%; in test [2], 80 to 100%; in [3] it was less than 50%; in test [5], less than 50%; in test [6], less than 50%; in test [7], 80 to 100%. In addition, the mortality at 500 ppm in test [8], in test [9] and in test [10] (setting [11]) was 80 to 100% each time. The pest or weed control at 500 ppm in test [4] lay within 80 to 100%.
Turning to `C=CCc1c(F)c(F)c(COC(=O)C(c2cnc(C)nc2)C(C)C)c(F)c1F` (racemic) [Compound 119], the mortality at 500 ppm in test [1] was 80 to 100%; in test [2] it was 80 to 100%; in test [3], 80 to 100%; in test [5], 80 to 100%; in [6], less than 50%; in test [7], 80 to 100%. Also, the mortality at 500 ppm in [8] was 80 to 100%; in test [9], less than 50%; in [10] (setting [11]) it was 80 to 100%. In addition, the pest or weed control at 500 ppm in [4] fell in the range of 80 to 100%.
